Laboratory results published in PubChem BioAssay (NCI).
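Values below derive from 48-hour exposures of cells grown in 96-well plates, with endpoints linearly interpolated between the two concentrations bracketing the appropriate inhibition level. GI50 marks 50% less growth. TGI: total growth inhibition.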

How the values were obtained:
Test in all cases: NCI anticancer screen, dose series, 48 h
786-0 renal = test system: 786-0 renal
A498 renal = test system: A498 renal
A549 NSCLC = test system: A549 NSCLC
ACHN renal = test system: ACHN renal
BT-549 breast = test system: BT-549 breast
CAKI-1 renal = test system: CAKI-1 renal
CCRF-CEM leukemia = test system: CCRF-CEM leukemia
COLO 205 colon = test system: COLO 205 colon
DU-145 prostate = test system: DU-145 prostate
EKVX NSCLC = test system: EKVX NSCLC
HCC-2998 colon = test system: HCC-2998 colon
HCT-116 colon = test system: HCT-116 colon
HCT-15 colon = test system: HCT-15 colon
HL-60(TB) leukemia = test system: HL-60(TB) leukemia
HOP-62 NSCLC = test system: HOP-62 NSCLC
HOP-92 NSCLC = test system: HOP-92 NSCLC
HS 578T breast = test system: HS 578T breast
HT29 colon = test system: HT29 colon
IGROV1 ovarian = test system: IGROV1 ovarian
K-562 leukemia = test system: K-562 leukemia
KM12 colon = test system: KM12 colon
LOX IMVI melanoma = test system: LOX IMVI melanoma
M14 melanoma = test system: M14 melanoma
MALME-3M melanoma = test system: MALME-3M melanoma
MCF7 breast = test system: MCF7 breast
MDA-MB-231 breast = test system: MDA-MB-231 breast
MDA-MB-435 = test system: MDA-MB-435
MDA-MB-468 breast = test system: MDA-MB-468 breast
MOLT-4 leukemia = test system: MOLT-4 leukemia
NCI-H226 lung = test system: NCI-H226 lung
NCI-H23 lung = test system: NCI-H23 lung
NCI-H460 lung = test system: NCI-H460 lung
NCI-H522 lung = test system: NCI-H522 lung
OVCAR-3 ovarian = test system: OVCAR-3 ovarian
OVCAR-4 ovarian = test system: OVCAR-4 ovarian
OVCAR-5 ovarian = test system: OVCAR-5 ovarian
OVCAR-8 ovarian = test system: OVCAR-8 ovarian
PC-3 prostate = test system: PC-3 prostate
RPMI-8226 leukemia = test system: RPMI-8226 leukemia
RXF 393 renal = test system: RXF 393 renal
SF-268 CNS = test system: SF-268 CNS
SF-295 CNS = test system: SF-295 CNS
SF-539 CNS = test system: SF-539 CNS
SK-MEL-2 melanoma = test system: SK-MEL-2 melanoma
SK-MEL-28 melanoma = test system: SK-MEL-28 melanoma
SK-MEL-5 melanoma = test system: SK-MEL-5 melanoma
SK-OV-3 ovarian = test system: SK-OV-3 ovarian
SN12C renal = test system: SN12C renal
SNB-19 CNS = test system: SNB-19 CNS
SNB-75 CNS = test system: SNB-75 CNS
SR leukemia = test system: SR leukemia
SW-620 colon = test system: SW-620 colon
T-47D breast = test system: T-47D breast
TK-10 renal = test system: TK-10 renal
U251 CNS = test system: U251 CNS
UACC-257 melanoma = test system: UACC-257 melanoma
UACC-62 melanoma = test system: UACC-62 melanoma
UO-31 renal = test system: UO-31 renal

For `CCOC(=O)C1=C(N)N(c2ccccc2)C2=C(C(=O)CC(C)(C)C2)C1c1ccc(Cl)cc1Cl` (stereo unspecified), the GI50 (786-0 renal) was 42.4 µM, the TGI (786-0 renal) was over 100 µM and the GI50 (A498 renal) was 45.4 µM. The TGI (A498 renal) was over 100 µM, the GI50 (A549 NSCLC) was 18.8 µM and the TGI (A549 NSCLC) was over 100 µM. The GI50 (ACHN renal) was 18.3 µM, the TGI (ACHN renal) was over 100 µM and the GI50 (BT-549 breast) was 45.8 µM. It also gave a TGI (BT-549 breast) of over 100 µM, a GI50 (CAKI-1 renal) of 6.82 µM and a TGI (CAKI-1 renal) of over 100 µM. It also gave a GI50 (CCRF-CEM leukemia) of 31 µM, a TGI (CCRF-CEM leukemia) of over 100 µM and a GI50 (COLO 205 colon) of 20.6 µM. The TGI (COLO 205 colon) was 91.3 µM, the GI50 (DU-145 prostate) was 67.1 µM and the TGI (DU-145 prostate) was over 100 µM. It also gave a GI50 (EKVX NSCLC) of 26.2 µM, a TGI (EKVX NSCLC) of over 100 µM and a GI50 (HCC-2998 colon) of 27.7 µM. For the same molecule, the TGI (HCC-2998 colon) was over 100 µM, the GI50 (HCT-116 colon) was 7.89 µM and the TGI (HCT-116 colon) was over 100 µM. For the same molecule, the GI50 (HCT-15 colon) was 15.2 µM, the TGI (HCT-15 colon) was over 100 µM and the GI50 (HL-60(TB) leukemia) was 5.95 µM. It also gave a TGI (HL-60(TB) leukemia) of over 100 µM, a GI50 (HOP-62 NSCLC) of 48.8 µM and a TGI (HOP-62 NSCLC) of over 100 µM. It also gave a GI50 (HOP-92 NSCLC) of 3.89 µM, a TGI (HOP-92 NSCLC) of 65.5 µM and a GI50 (HS 578T breast) of 76.8 µM. The TGI (HS 578T breast) was over 100 µM, the GI50 (HT29 colon) was 19.8 µM and the TGI (HT29 colon) was over 100 µM. It also gave a GI50 (IGROV1 ovarian) of 79.7 µM, a TGI (IGROV1 ovarian) of over 100 µM and a GI50 (K-562 leukemia) of 7.23 µM. The TGI (K-562 leukemia) was over 100 µM, the GI50 (KM12 colon) was 23.6 µM and the TGI (KM12 colon) was over 100 µM. For the same molecule, the GI50 (LOX IMVI melanoma) was 32.4 µM, the TGI (LOX IMVI melanoma) was over 100 µM and the GI50 (M14 melanoma) was 34.8 µM. For the same molecule, the TGI (M14 melanoma) was over 100 µM, the GI50 (MALME-3M melanoma) was 29.3 µM and the TGI (MALME-3M melanoma) was over 100 µM. It also gave a GI50 (MCF7 breast) of 17.7 µM, a TGI (MCF7 breast) of over 100 µM and a GI50 (MDA-MB-231 breast) of 33.5 µM. The TGI (MDA-MB-231 breast) was over 100 µM, the GI50 (MDA-MB-435) was 32.1 µM and the TGI (MDA-MB-435) was over 100 µM. The GI50 (MDA-MB-468 breast) was 6.83 µM, the TGI (MDA-MB-468 breast) was 53.8 µM and the GI50 (MOLT-4 leukemia) was 9.56 µM. The TGI (MOLT-4 leukemia) was over 100 µM, the GI50 (NCI-H226 lung) was 23.4 µM and the TGI (NCI-H226 lung) was over 100 µM. For the same molecule, the GI50 (NCI-H23 lung) was 25.1 µM, the TGI (NCI-H23 lung) was over 100 µM and the GI50 (NCI-H460 lung) was 13.9 µM. The TGI (NCI-H460 lung) was over 100 µM, the GI50 (NCI-H522 lung) was 22.2 µM and the TGI (NCI-H522 lung) was over 100 µM. The GI50 (OVCAR-3 ovarian) was 26.2 µM, the TGI (OVCAR-3 ovarian) was over 100 µM and the GI50 (OVCAR-4 ovarian) was 28.3 µM. For the same molecule, the TGI (OVCAR-4 ovarian) was over 100 µM, the GI50 (OVCAR-5 ovarian) was 72.6 µM and the TGI (OVCAR-5 ovarian) was over 100 µM. The GI50 (OVCAR-8 ovarian) was 37.2 µM, the TGI (OVCAR-8 ovarian) was over 100 µM and the GI50 (PC-3 prostate) was 4.14 µM. For the same molecule, the TGI (PC-3 prostate) was over 100 µM, the GI50 (RPMI-8226 leukemia) was 7.07 µM and the TGI (RPMI-8226 leukemia) was over 100 µM. For the same molecule, the GI50 (RXF 393 renal) was 13.8 µM, the TGI (RXF 393 renal) was over 100 µM and the GI50 (SF-268 CNS) was 53.2 µM. For the same molecule, the TGI (SF-268 CNS) was over 100 µM, the GI50 (SF-295 CNS) was 20.3 µM and the TGI (SF-295 CNS) was over 100 µM. It also gave a GI50 (SF-539 CNS) of 37.8 µM, a TGI (SF-539 CNS) of over 100 µM and a GI50 (SK-MEL-2 melanoma) of 17 µM. For the same molecule, the TGI (SK-MEL-2 melanoma) was 58 µM, the GI50 (SK-MEL-28 melanoma) was 66.7 µM and the TGI (SK-MEL-28 melanoma) was over 100 µM. The GI50 (SK-MEL-5 melanoma) was 12.4 µM, the TGI (SK-MEL-5 melanoma) was 25.6 µM and the GI50 (SK-OV-3 ovarian) was 33.5 µM. For the same molecule, the TGI (SK-OV-3 ovarian) was over 100 µM, the GI50 (SN12C renal) was 30.8 µM and the TGI (SN12C renal) was over 100 µM. The GI50 (SNB-19 CNS) was 29.2 µM, the TGI (SNB-19 CNS) was over 100 µM and the GI50 (SNB-75 CNS) was 53.3 µM. The TGI (SNB-75 CNS) was over 100 µM, the GI50 (SR leukemia) was 14.7 µM and the TGI (SR leukemia) was over 100 µM. For the same molecule, the GI50 (SW-620 colon) was 29 µM, the TGI (SW-620 colon) was over 100 µM and the GI50 (T-47D breast) was 10.4 µM. It also gave a TGI (T-47D breast) of over 100 µM, a GI50 (TK-10 renal) of 56.3 µM and a TGI (TK-10 renal) of over 100 µM. The GI50 (U251 CNS) was 24.6 µM, the TGI (U251 CNS) was over 100 µM and the GI50 (UACC-257 melanoma) was 28.8 µM. It also gave a TGI (UACC-257 melanoma) of over 100 µM, a GI50 (UACC-62 melanoma) of 12.6 µM and a TGI (UACC-62 melanoma) of over 100 µM. It also gave a GI50 (UO-31 renal) of 11.5 µM and a TGI (UO-31 renal) of over 100 µM.
